Results from patent publication US9357777B2, “Method for effective management of helicoverpa armigera” (priority 2012, dated 2016).
Bridges are numbered along the chain shown (N, C = ends). Where no end group is shown, it is not given here.

Biological target: T1, bovine trypsin (Bos taurus, UniProt P00760)
T1 construct: purchased Sigma-Aldrich
T1 sequence (P00760 24-246): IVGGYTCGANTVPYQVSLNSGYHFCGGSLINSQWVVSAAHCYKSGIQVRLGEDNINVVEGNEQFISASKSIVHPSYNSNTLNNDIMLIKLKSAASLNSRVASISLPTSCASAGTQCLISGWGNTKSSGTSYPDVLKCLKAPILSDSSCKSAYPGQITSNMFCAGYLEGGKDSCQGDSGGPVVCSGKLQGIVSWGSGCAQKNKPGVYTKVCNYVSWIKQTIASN
Assay: Inhibition kinetics with bovine trypsin (BApNA substrate)
Type: biochemical
Procedure: Michaelis-Menten constant (Km) for trypsin was calculated by using various concentrations of BApNA substrate (1 to 5 mM), and then plotting double reciprocal curve with 1/(v) and 1/[S]. The kinetic properties of IRDs were analysed over a range of concentration of inhibitors (1 μM to 1 mM). IC50 values for each inhibitor were calculated from the sigmoid curve indicating the best fit for the percentage inhibition data obtained. The values of Ki values for each inhibitor were calculated directly from IC50 values using Cheng-Prusoff's classical equation (Copeland et al., 1995).

What does the source list for “QPICTNSSAGLKGCNYYNADGTFICEGESDPNHPKACPKNCDPNIAYSLC (disulfide 4-41, 14-50; cysteines drawn unpaired) [IRD-9]”?
Ki (calculated from IC50 by Cheng-Prusoff's equation, read-out: Inhibition constant (Ki)): ~2.2 µM; IC50 (substrate BApNA 1 mM, FIG. 2C): ~2.2 µM
